Experimental data published in PMC6362307, “DPP8/DPP9 inhibition elicits canonical Nlrp1b inflammasome hallmarks in murine macrophages” (Life Science Alliance, 2019).
Like-named read-outs stand apart in the source and are kept apart here.

Experiments:
[1] = test system: LPS-primed B6^Nlrp1b+ BMDMs; experiment: IL-1β and IL-18 secretion, Luminex multiplex assay; format: cell-based, mouse
[2] = test system: B6^Nlrp1b+C1^−/−C11^−/−ASC^−/− macrophages; experiment: Cell death morphology, confocal bright-field imaging; format: cell-based, mouse; conditions: 10 μM; 4 h
B6^Nlrp1b+ BMDMs [3] = experiment: Cell death kinetics, Sytox Green on Incucyte; format: cell-based, mouse; conditions: for time to reach 30% half-maximal level of pyroptosis: VBP: all tested concentrations (10, 25, 40 μM), 1G244: 10 μM
human DPP9 [4] = molecular target: T1, human DPP9 (Homo sapiens, UniProt Q86TI2); conditions: for Inhibitor in lysate / Inhibitor in medium: mouse, 15 min, 10 µM
T1 sequence (Q86TI2 whole entry): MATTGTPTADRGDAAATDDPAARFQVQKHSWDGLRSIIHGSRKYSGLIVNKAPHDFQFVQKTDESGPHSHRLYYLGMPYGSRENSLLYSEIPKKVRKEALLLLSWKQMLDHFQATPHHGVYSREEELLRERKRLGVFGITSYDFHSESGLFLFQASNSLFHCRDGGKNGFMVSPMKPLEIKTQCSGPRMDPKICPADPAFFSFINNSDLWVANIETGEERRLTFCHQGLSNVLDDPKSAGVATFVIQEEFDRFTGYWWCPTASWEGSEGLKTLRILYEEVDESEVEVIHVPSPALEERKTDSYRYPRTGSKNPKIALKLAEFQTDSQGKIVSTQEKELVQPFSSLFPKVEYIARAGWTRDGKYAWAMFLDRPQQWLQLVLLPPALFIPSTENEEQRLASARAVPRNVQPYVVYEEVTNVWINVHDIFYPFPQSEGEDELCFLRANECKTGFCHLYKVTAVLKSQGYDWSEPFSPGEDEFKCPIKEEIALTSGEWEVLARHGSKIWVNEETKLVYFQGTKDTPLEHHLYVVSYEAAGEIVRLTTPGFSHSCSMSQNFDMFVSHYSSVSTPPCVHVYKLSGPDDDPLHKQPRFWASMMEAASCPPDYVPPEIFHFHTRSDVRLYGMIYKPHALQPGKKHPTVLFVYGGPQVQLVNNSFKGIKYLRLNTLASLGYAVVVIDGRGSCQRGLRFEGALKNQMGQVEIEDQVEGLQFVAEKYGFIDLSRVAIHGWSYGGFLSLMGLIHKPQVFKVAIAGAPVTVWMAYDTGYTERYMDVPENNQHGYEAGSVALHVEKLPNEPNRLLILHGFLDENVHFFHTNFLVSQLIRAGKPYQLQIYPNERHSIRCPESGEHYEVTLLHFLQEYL

B6^Nlrp1b+ASC^−/− BMDMs [5] = experiment: Caspase-1 cleavage by immunoblot; format: cell-based, mouse; conditions: 10 μM; 8 h
B6^Nlrp1b+ BMDMs [6] = experiment: Caspase-1 cleavage by immunoblot; format: cell-based, mouse; conditions: for caspase-1 maturation to p20 (in words): LPS-primed 3 h, 10 or 40 μM, 4, 8 and 24 h; for caspase-1 maturation (in words): LPS-primed, 4 and 8 h
[7] = test system: B6^Nlrp1b+GSDMD^−/− macrophages; experiment: Apoptosis induction, confocal bright-field imaging; format: cell-based, mouse; conditions: 10 μM; 4 h
B6 BMDMs = experiment: Cell death kinetics, Sytox Green on Incucyte; format: cell-based
B6^Nlrp1b+ASC^−/− BMDMs [8] = experiment: Cell death kinetics, Sytox Green on Incucyte; format: cell-based, mouse; conditions: 10 μM
human DPP9 [9] = molecular target: T1, human DPP9; experiment: biochemical
B6^Nlrp1b+ BMDMs [10] = experiment: ASC speck formation, confocal imaging; format: cell-based, mouse; conditions: 10 μM; 4 or 8 h
Experimental: Cells were stained with anti-ASC (1:200) antibody, followed by secondary anti-rabbit DyLight 594 (1:1,000). Then, slides were mounted on ProLong Gold Antifade reagent with DAPI for analysis. For quantification of ASC specks, analyses were performed on a spinning-disk system (Zeiss), using an observer Z.1 microscope equipped with a Yokogawa disk CSU-X1. Fluorescent images were acquired with the use of a Plan-Apochromat 40×/1.4 oil DIC III objective and a Rolera Em-C2 Camera. Tile scanning was performed combining 4 × 5 images for the final mosaic (total area 7.42 mm × 5.91 mm). The maximum intensity projections of the final mosaic were analysed on Volocity 6.3.1 (PerkinElmer) software for the number of cells containing ASC specks. Seven mosaics were quantified per experimental condition from each biological repeat and the data from all repeats were combined. One-way ANOVA with Tukey’s multiple comparisons analysis was performed in GraphPad Prism 6.0 software.

Human DPP2 [11] = molecular target: T2, Human DPP2 (Homo sapiens, UniProt Q9UHL4)
Experimental: (§1) Lys-Ala-paranitroanilide (Lys-Ala-pNA) was used as substrate at a final concentration of 1 mM.

Human DPP2 [12] = molecular target: T2, Human DPP2; experiment: biochemical
Experimental: as §1

Human recombinant FAP = molecular target: T3, Human recombinant FAP (Homo sapiens, UniProt Q12884)
T3 sequence (Q12884 26-760 limits assumed): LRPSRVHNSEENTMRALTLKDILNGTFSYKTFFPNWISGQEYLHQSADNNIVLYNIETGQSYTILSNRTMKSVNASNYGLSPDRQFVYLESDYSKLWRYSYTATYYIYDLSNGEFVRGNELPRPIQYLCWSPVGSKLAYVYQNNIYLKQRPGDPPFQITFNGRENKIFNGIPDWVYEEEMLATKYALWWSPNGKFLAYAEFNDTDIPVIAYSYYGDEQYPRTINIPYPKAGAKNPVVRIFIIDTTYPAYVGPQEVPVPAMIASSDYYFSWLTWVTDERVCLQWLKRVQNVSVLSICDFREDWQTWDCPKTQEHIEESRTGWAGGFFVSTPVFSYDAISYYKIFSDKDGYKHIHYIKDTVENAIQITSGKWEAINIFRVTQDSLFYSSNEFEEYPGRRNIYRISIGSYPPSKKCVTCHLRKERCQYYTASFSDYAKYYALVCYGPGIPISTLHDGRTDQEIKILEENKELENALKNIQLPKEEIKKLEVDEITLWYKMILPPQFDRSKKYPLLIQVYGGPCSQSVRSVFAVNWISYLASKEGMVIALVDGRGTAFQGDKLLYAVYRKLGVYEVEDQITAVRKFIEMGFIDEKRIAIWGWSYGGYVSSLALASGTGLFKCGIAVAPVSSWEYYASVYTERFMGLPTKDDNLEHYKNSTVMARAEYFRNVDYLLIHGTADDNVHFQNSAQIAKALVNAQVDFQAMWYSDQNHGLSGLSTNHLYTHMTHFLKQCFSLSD
Experimental: FAP and PREP were assayed in buffer containing 0.1 M Tris–HCl (pH 8), 300 mM NaF, 1 mM EDTA, 50 mM salicylic acid, and 5 mM DTT.

[13] = test system: B6^Nlrp1b+C1^−/−C11^−/− macrophages; experiment: Caspase-8 cleavage by immunoblot; format: cell-based, mouse; conditions: 10 μM; 4 h
J774.A1 cells = experiment: Cell death kinetics, Sytox Green on Incucyte; conditions: 10 μM and 25 μM
[14] = calibration curve in cell lysate
[15] = cell lysate of BMDMs that received 10 µM for 15 min
[16] = medium of BMDMs that received 10 µM for 15 min
[17] = Ic50, calibration curve in cell lysate
[18] = Ic50, calibration curve in medium

N[C@@H](CC(=O)N1CCN(C(c2ccc(F)cc2)c2ccc(F)cc2)CC1)C(=O)N1Cc2ccccc2C1 [1G244]
secretion of IL-1β and IL-18 (in words) ([1]; 10 or 40 μM, 4, 8 or 24 h): potently triggered secretion of IL-1β and IL-18
cell death (in words) [2]: remained alive and were fully rescued from apoptosis and pyroptosis induction
cell death induction (in words) (B6^Nlrp1b+ BMDMs [3]; 0.1 μM): failed to trigger a cytotoxic response
cell death induction (in words) (B6^Nlrp1b+ BMDMs [3]; 1 μM): induced a reduced level of pyroptosis
plateau of pyroptosis (B6^Nlrp1b+ BMDMs [3]; 10 μM, by 6 h posttreatment): about 60%
time to reach 30% half-maximal level of pyroptosis (B6^Nlrp1b+ BMDMs [3]): ≤ 2 h
Slope factor (human DPP9 [4]; [14]): 1.30 ± 0.09
Slope factor (human DPP9 [4]; calibration curve in medium): 1.39 ± 0.09
Inhibition (human DPP9 [4]; [15]): 98%
Inhibition (human DPP9 [4]; [16]): 100%
Inhibitor in lysate (human DPP9 [4]): 0.06 µM
Inhibitor in medium (human DPP9 [4]): 1.5 µM
caspase-1 maturation (in words) (B6^Nlrp1b+ASC^−/− BMDMs [5]): blunted
caspase-1 maturation to p20 (in words) (B6^Nlrp1b+ BMDMs [6]): efficiently promoted caspase-1 auto-maturation
caspase-1 maturation (in words) (B6^Nlrp1b+ BMDMs [6]; 1 μM): triggered weak caspase-1 processing
apoptosis induction (in words) [7]: potently induce apoptosis
time at which pyroptosis commences (B6 BMDMs; 10 μM or 25 μM): around 10 h
pyroptosis, share of the cell population (B6 BMDMs; by 24 h, 10 μM or 25 μM): ~20%
pyroptosis level (B6 BMDMs; by 24 h, 40 μM): 40%
reduction of maximal level of pyroptosis compared with ASC-sufficient B6^Nlrp1b+ macrophages (B6^Nlrp1b+ASC^−/− BMDMs [8]): about 50%
IC50 (human DPP9 [9]; [17]): 10 ± 0.6 nM
IC50 (human DPP9 [9]; [18]): 15.3 ± 0.8 nM
ASC speck formation (in words) (B6^Nlrp1b+ BMDMs [10]): marked ASC speck formation

N#C[C@@H]1CCCN1C(=O)[C@@H]1CCCN1C(=O)CCCc1ccccc1 [KYP-2047]
cell death induction (in words) (B6^Nlrp1b+ BMDMs [3]; 10, 25 and 40 μM): none of the listed inhibitors triggered a cell death response
cell death induction (in words) (B6 BMDMs; 10, 25 and 40 μM): none of the listed inhibitors triggered a cell death response

N[C@@H](CCNCc1ccc(Cl)cc1)C(=O)N1CCCCC1 [UAMC39]
cell death induction (in words) (B6^Nlrp1b+ BMDMs [3]; 10, 25 and 40 μM): none of the listed inhibitors triggered a cell death response
cell death induction (in words) (B6 BMDMs; 10, 25 and 40 μM): none of the listed inhibitors triggered a cell death response
Slope factor (Human DPP2 [11]; [14]): 1.3 ± 0.3
Slope factor (Human DPP2 [11]; calibration curve in medium): 1.4 ± 0.1
Inhibition (Human DPP2 [11]; [15]): 100%
Inhibition (Human DPP2 [11]; [16]): 100%
Inhibitor in lysate (Human DPP2 [11]; mouse, 15 min, 10 µM): 120/66
Inhibitor in medium (Human DPP2 [11]; mouse, 15 min, 10 µM): 52/45
IC50 (Human DPP2 [12]; [17]): 6 ± 1 nM
IC50 (Human DPP2 [12]; [18]): 9.8 ± 0.6 nM

N#C[C@@H]1CC(F)(F)CN1C(=O)CNC(=O)c1ccnc2ccccc12 [UAMC1110]
cell death induction (in words) (B6^Nlrp1b+ BMDMs [3]; 10, 25 and 40 μM): none of the listed inhibitors triggered a cell death response
Slope factor (Human recombinant FAP; [14]): 1.21 ± 0.07
Slope factor (Human recombinant FAP; calibration curve in medium): 1.2 ± 0.1
Inhibition (Human recombinant FAP; [15]): 100%
Inhibition (Human recombinant FAP; [16]): 100%
Inhibitor in lysate (Human recombinant FAP; mouse, 15 min, 10 µM): 0.4 µM
Inhibitor in medium (Human recombinant FAP; mouse, 15 min, 10 µM): 8.8 µM
cell death induction (in words) (B6 BMDMs; 10, 25 and 40 μM): none of the listed inhibitors triggered a cell death response

CC(C)[C@H](N)C(=O)N1CCC[C@H]1B(O)O [VBP, Val-boroPro]
secretion of IL-1β and IL-18 (in words) ([1]; 10 or 40 μM, 4, 8 or 24 h): potently released IL-1β
cell death (in words) [2]: remained alive and were fully rescued from apoptosis and pyroptosis induction
caspase-8 cleavage (in words) [13]: marked ASC-dependent caspase-8 cleavage
cell death induction (in words) (B6^Nlrp1b+ BMDMs [3]; 0.1 μM): failed to trigger a cytotoxic response
cell death induction (in words) (B6^Nlrp1b+ BMDMs [3]; 1 μM): sufficient to induce robust pyroptosis
time to reach 30% half-maximal level of pyroptosis (B6^Nlrp1b+ BMDMs [3]): ≤ 3 h
time to reach half-maximal induction of pyroptosis (35% cell death in the total cell population) (B6^Nlrp1b+ BMDMs [3]; rebuttal letter, on Figure 1a): about 3 hours
cytotoxic response (in words) (J774.A1 cells): elicited a swift and robust cytotoxic response
caspase-1 maturation (in words) (B6^Nlrp1b+ASC^−/− BMDMs [5]): blunted
caspase-1 maturation to p20 (in words) (B6^Nlrp1b+ BMDMs [6]): triggered marked caspase-1 cleavage
caspase-1 maturation (in words) (B6^Nlrp1b+ BMDMs [6]; 0.1 μM): failed to induce caspase-1 auto-cleavage
caspase-1 maturation (in words) (B6^Nlrp1b+ BMDMs [6]; 1 μM): sufficient to trigger caspase-1 maturation
apoptosis induction (in words) [7]: potently induce apoptosis
time required to reach 30% cytotoxicity (B6 BMDMs; 10, 25 and 40 μM): about 8 h
level of pyroptosis (SG-positive cells relative to Triton X100) (B6 BMDMs; by 6 h, 10, 25 and 40 μM): ~20%
plateau cytotoxicity (B6 BMDMs; by 24 h, 10, 25 and 40 μM): approximately 50%
time to reach the same level of cell death induction (35%) (B6 BMDMs; rebuttal letter, on Figure 1a): approximately 9 h
reduction of maximal level of pyroptosis compared with ASC-sufficient B6^Nlrp1b+ macrophages (B6^Nlrp1b+ASC^−/− BMDMs [8]): about 50%
ASC speck formation (in words) (B6^Nlrp1b+ BMDMs [10]): marked ASC speck formation

CC(=O)N[C@H](C(=O)N1CCC[C@H]1B(O)O)C(C)C [aVBP]
secretion of IL-1β and IL-18 (in words) ([1]; 10 or 40 μM, 4, 8 or 24 h): failed to induce cytokine secretion
cell death induction (in words) (B6^Nlrp1b+ BMDMs [3]; 10, 25 and 40 μM): failed to induce cytotoxicity
caspase-1 maturation to p20 (in words) (B6^Nlrp1b+ BMDMs [6]): failed to elicit caspase-1 maturation
cell death induction (in words) (B6 BMDMs; 10, 25 and 40 μM): failed to induce cytotoxicity

CC(C)[C@@H]1[NH2+][B-](O)(O)[C@@H]2CCCN2C1=O [cVBP]
secretion of IL-1β and IL-18 (in words) ([1]; 10 μM): less efficient in eliciting extracellular secretion of IL-1β and IL-18
secretion of IL-1β and IL-18 (in words) ([1]; 40 μM): triggered substantial extracellular release of IL-1β and IL-18
cell death induction (in words) (B6^Nlrp1b+ BMDMs [3]; 10, 25 and 40 μM): induced significant pyroptosis
Slope factor (human DPP9 [4]; [14]): 1.4 ± 0.2
Slope factor (human DPP9 [4]; calibration curve in medium): 1.33 ± 0.08
Inhibition (human DPP9 [4]; [15]): 2.7%
Inhibition (human DPP9 [4]; [16]): 71%
Inhibitor in lysate (human DPP9 [4]): 0.3 µM
Inhibitor in medium (human DPP9 [4]): 3.2 µM
attenuation in ability to inhibit DPP9 activity in vitro (human DPP9 [4]; relative to VBP): more than 100 fold
caspase-1 maturation to p20 (in words) (B6^Nlrp1b+ BMDMs [6]): caspase-1 p20 cleavage was detected only in lysates of macrophages that had been treated with the highest concentration (40 μM)
cell death induction (in words) (B6 BMDMs; 10, 25 and 40 μM): failed to induce cell death
IC50 (human DPP9 [9]; [17]): 1600 ± 100 nM
IC50 (human DPP9 [9]; [18]): 1700 ± 80 nM

N[C@@H](CC(=O)N1CCn2c(nnc2C(F)(F)F)C1)Cc1cc(F)c(F)cc1F [sitagliptin]
cell death induction (in words) (B6^Nlrp1b+ BMDMs [3]; 10, 25 and 40 μM): none of the listed inhibitors triggered a cell death response
cell death induction (in words) (B6 BMDMs; 10, 25 and 40 μM): none of the listed inhibitors triggered a cell death response
